Patent EP1981504B1, “THIADIAZOLE DERIVATIVES FOR THE TREATMENT OF NEURO DEGENERATIVE DISEASES” (NV reMYND, priority 2006, dated 2007)
≈ marks a conversion by molar mass, not a printed value.

Tested on: M17-SYNwt cells
Experiment: α-synuclein cytotoxicity assay (LDH leakage from paraquat-treated α-synuclein over-expressing neuroblastoma cells)
Format: cell-based, human
Conditions: paraquat 32 mM, 40 hours, LDH release; for %I: percent inhibition of synuclein cytotoxicity at most effective concentration of test compound, relative to untreated paraquat cells; for EC50: Homo sapiens, Neuroblastoma cell, 10 point curves in duplicate
In short: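 M17 neuroblastoma cells over-expressing wild-type α-synuclein were challenged with paraquat, and cytotoxicity was read as LDH release. Protection was expressed as percent reduction of paraquat-induced LDH release relative to untreated paraquat cells and control cells. Actives were retested in 10-point duplicate dose responses.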

With `O=C(NCCN1CCN(c2nc(Cc3ccc(F)cc3)ns2)CC1)c1cccc(F)c1` [Compound 105, 3-fluoro-N-{2-[4-[3-(4-fluorobenzyl)-1,2,4-thiadiazol-5-yl]piperazin-1-yl]ethyl}benzamide] the “%I” value was 115%.
In the case of `O=C(NCCN1CCN(c2nc(Cc3ccccc3)ns2)CC1)c1cccc(F)c1` [Compound 106, 3-fluoro-N-{2-[4-[3-benzyl-1,2,4-thiadiazol-5-yl]piperazin-1-yl]ethyl}benzamide], the “%I” value is reported as 49%.
For `O=C(Cc1ccc(F)cc1)NCCN1CCN(c2nc(Cc3ccc(F)cc3)ns2)CC1` [Compound 107, 2-(4-fluorophenyl)-N-{2-[4-[3-(4-fluorobenzyl)-1,2,4-thiadiazol-5-yl]piperazin-1-yl]ethyl}acetamide], the EC50 was 0.26 µg/mL (≈ 0.568 µM) and the “%I” value was 80%.
For `O=C(Cc1ccccc1)NCCN1CCN(c2nc(Cc3ccc(F)cc3)ns2)CC1` [Compound 108, 2-phenyl-N-{2-[4-[3-(4-fluorobenzyl)-1,2,4-thiadiazol-5-yl]piperazin-1-yl]ethyl}acetamide], the EC50 was 2.06 µg/mL (≈ 4.69 µM) and the “%I” value was 63%.
In the case of `Cc1ccc(Cc2nsc(N3CCN(CCNC(=O)Cc4ccc(F)cc4)CC3)n2)cc1` [Compound 109, 2-(4-fluorophenyl)-N-{2-[4-[3-(4-methylbenzyl)-1,2,4-thiadiazol-5-yl]piperazin-1-yl]ethyl}acetamide], the EC50 is reported as 3.52 µg/mL (≈ 7.76 µM) and the “%I” value is reported as 93%.
With `O=C(NCCN1CCN(c2nc(Cc3ccc(F)cc3)ns2)CC1)NCc1ccccc1` [Compound 110, N-benzyl-N'-{2-[4-[3-(4-fluorobenzyl)-1,2,4-thiadiazol-5-yl]piperazin-1-yl]ethyl}urea] the “%I” value was 77%.
In the case of `Fc1ccc(Cc2nsc(N3CCN(Cc4ccccc4)CC3)n2)cc1` [Compound 113, 1-benzyl-4-[3-(4-fluorobenzyl)-1,2,4-thiadiazol-5-yl]piperazine], the EC50 is reported as 1.54 µg/mL (≈ 4.18 µM) and the “%I” value is reported as 65%.
In the case of `Fc1ccc(Cc2nsc(N3CCN(Cc4ccc5c(c4)OCO5)CC3)n2)cc1` [Compound 114, 1-(1,3-benzodioxol-5-ylmethyl)-4-[3-(4-fluorobenzyl)-1,2,4-thiadiazol-5-yl]piperazine], the “%I” value is reported as 86%.
With `COc1cccc(Cc2nsc(N3CCN(C(=O)c4ccccc4F)C(C)C3)n2)c1` (centres unmarked) [Compound 115, 1-(2-fluorobenzoyl)-4-[3-(3-methoxybenzyl)-1,2,4-thiadiazol-5-yl]-2-methylpiperazine] the EC50 was 0.0361 µg/mL (≈ 0.0846 µM) and the “%I” value was 75%.
`CCc1ccc(C(=O)N2CCN(c3nc(Cc4ccc(F)cc4)ns3)CC2C)cc1` (centres unmarked) [Compound 116, 1-(4-ethylbenzoyl)-4-[3-(4-fluorobenzyl)-1,2,4-thiadiazol-5-yl]-2-methylpiperazine] was tested, and the EC50 was 0.0522 µg/mL (≈ 0.123 µM) and the “%I” value was 71%.
`CCCCc1ccc(C(=O)N2CCN(c3nc(Cc4ccc(C)cc4)ns3)CC2C)cc1` (centres unmarked) [Compound 117, 1-(4-butylbenzoyl)-4-[3-(4-methylbenzyl)-1,2,4-thiadiazol-5-yl]-2-methylpiperazine] was tested, and the EC50 was 0.0841 µg/mL (≈ 0.187 µM) and the “%I” value was 82%.
In the case of `COc1ccc(C(=O)N2CCN(c3nc(Cc4ccc(F)cc4)ns3)CC2C)cc1` (centres unmarked) [Compound 118, 1-(4-methoxybenzoyl)-4-[3-(4-fluorobenzyl)-1,2,4-thiadiazol-5-yl]-2-methylpiperazine], the EC50 is reported as 0.0911 µg/mL (≈ 0.214 µM) and the “%I” value is reported as 64%.
With `COc1cccc(Cc2nsc(N3CCN(C(=O)c4ccc5c(c4)OCO5)C(C)C3)n2)c1` (centres unmarked) [Compound 119, 1-(1,3-benzodioxol-5-ylcarbonyl)-4-[3-(3-methoxybenzyl)-1,2,4-thiadiazol-5-yl]-2-methylpiperazine] the EC50 was 0.095 µg/mL (≈ 0.21 µM) and the “%I” value was 72%.
For `CCCCc1ccc(C(=O)N2CCN(c3nc(Cc4ccc(F)cc4)ns3)CC2C)cc1` (centres unmarked) [Compound 120, 1-(4-butylbenzoyl)-4-[3-(4-fluorobenzyl)-1,2,4-thiadiazol-5-yl]-2-methylpiperazine], the EC50 was 0.0987 µg/mL (≈ 0.218 µM) and the “%I” value was 120%.
`CCCCCCc1ccc(C(=O)N2CCN(c3nc(Cc4ccc(F)cc4)ns3)CC2)cc1` [Compound 121, 1-(4-hexylbenzoyl)-4-[3-(4-fluorobenzyl)-1,2,4-thiadiazol-5-yl]piperazine] was tested, and the EC50 was 0.12 µg/mL (≈ 0.257 µM) and the “%I” value was 64%.
`CC1CN(c2nc(Cc3ccc(F)cc3)ns2)CCN1C(=O)c1cccc(Cl)c1` (centres unmarked) [Compound 122, 1-(3-chlorobenzoyl)-4-[3-(4-fluorobenzyl)-1,2,4-thiadiazol-5-yl]-2-methylpiperazine] was tested, and the EC50 was 0.14 µg/mL (≈ 0.325 µM) and the “%I” value was 92%.
With `COc1cccc(Cc2nsc(N3CCN(C(=O)c4ccc(F)cc4)C(C)C3)n2)c1` (centres unmarked) [Compound 123, 1-(4-fluorobenzoyl)-4-[3-(3-methoxybenzyl)-1,2,4-thiadiazol-5-yl]-2-methylpiperazine] the EC50 was 0.14 µg/mL (≈ 0.328 µM) and the “%I” value was 95%.
For `COc1cccc(Cc2nsc(N3CCN(C(=O)c4ccc(C)cc4)C(C)C3)n2)c1` (centres unmarked) [Compound 124, 1-(4-methylbenzoyl)-4-[3-(3-methoxybenzyl)-1,2,4-thiadiazol-5-yl]-2-methylpiperazine], the EC50 was 0.14 µg/mL (≈ 0.331 µM) and the “%I” value was 57%.
With `CC1CN(c2nc(Cc3ccc(Cl)cc3)ns2)CCN1C(=O)c1cccc(F)c1` (centres unmarked) [Compound 125, 1-(3-fluorobenzoyl)-4-[3-(4-chlorobenzyl)-1,2,4-thiadiazol-5-yl]-2-methylpiperazine] the EC50 was 0.16 µg/mL (≈ 0.371 µM) and the “%I” value was 68%.
For `CC1CN(c2nc(Cc3ccc(F)cc3)ns2)CCN1C(=O)c1ccccc1` (centres unmarked) [Compound 126, 1-benzoyl-4-[3-(4-fluorobenzyl)-1,2,4-thiadiazol-5-yl]-2-methylpiperazine], the EC50 was 0.21 µg/mL (≈ 0.53 µM) and the “%I” value was 63%.
For `CC1CN(c2nc(Cc3ccc(F)cc3)ns2)CCN1C(=O)c1ccc(F)cc1` (centres unmarked) [Compound 127, 1-(4-fluorobenzoyl)-4-[3-(4-fluorobenzyl)-1,2,4-thiadiazol-5-yl]-2-methylpiperazine], the EC50 was 0.23 µg/mL (≈ 0.555 µM) and the “%I” value was 108%.
`CC1CN(c2nc(Cc3ccc(F)cc3)ns2)CCN1C(=O)c1ccc(C(C)(C)C)cc1` (centres unmarked) [Compound 128, 1-(4-tert-butylbenzoyl)-4-[3-(4-fluorobenzyl)-1,2,4-thiadiazol-5-yl]-2-methylpiperazine] was tested, and the EC50 was 0.24 µg/mL (≈ 0.53 µM) and the “%I” value was 95%.
With `CC1CN(c2nc(Cc3ccc(F)cc3)ns2)CCN1C(=O)c1ccc(-c2ccccc2)cc1` (centres unmarked) [Compound 129, 1-(1,1'-biphenyl-4-ylcarbonyl)-4-[3-(4-fluorobenzyl)-1,2,4-thiadiazol-5-yl]-2-methylpiperazine] the EC50 was 0.24 µg/mL (≈ 0.508 µM) and the “%I” value was 61%.
`CCc1ccc(C(=O)N2CCN(c3nc(Cc4ccc(C)cc4)ns3)CC2)cc1` [Compound 131, 1-(4-ethylbenzoyl)-4-[3-(4-methylbenzyl)-1,2,4-thiadiazol-5-yl]piperazine] was tested, and the EC50 was 0.25 µg/mL (≈ 0.615 µM) and the “%I” value was 91%.
With `CC1CN(c2nc(Cc3ccc(F)cc3)ns2)CCN1C(=O)c1ccc2ccccc2c1` (centres unmarked) [Compound 132, 1-(2-naphthoyl)-4-[3-(4-fluorobenzyl)-1,2,4-thiadiazol-5-yl]-2-methylpiperazine] the EC50 was 0.26 µg/mL (≈ 0.582 µM) and the “%I” value was 74%.
With `COc1ccccc1C(=O)N1CCN(c2nc(Cc3ccc(F)cc3)ns2)CC1C` (centres unmarked) [Compound 133, 1-(2-methoxybenzoyl)-4-[3-(4-fluorobenzyl)-1,2,4-thiadiazol-5-yl]-2-methylpiperazine] the EC50 was 0.29 µg/mL (≈ 0.68 µM) and the “%I” value was 118%.
In the case of `CCCCCc1ccc(C(=O)N2CCN(c3nc(Cc4ccc(C)cc4)ns3)CC2C)cc1` (centres unmarked) [Compound 134, 1-(4-pentylbenzoyl)-4-[3-(4-methylbenzyl)-1,2,4-thiadiazol-5-yl]-2-methylpiperazine], the EC50 is reported as 0.3 µg/mL (≈ 0.648 µM) and the “%I” value is reported as 75%.
In the case of `CC1CN(c2nc(Cc3ccc(F)cc3)ns2)CCN1C(=O)c1ccc(Br)cc1` (centres unmarked) [Compound 135, 1-(4-bromobenzoyl)-4-[3-(4-fluorobenzyl)-1,2,4-thiadiazol-5-yl]-2-methylpiperazine], the EC50 is reported as 0.31 µg/mL (≈ 0.652 µM) and the “%I” value is reported as 73%.
`COc1ccc(C(=O)N2CCN(c3nc(Cc4ccc(F)cc4)ns3)CC2C)c(OC)c1` (centres unmarked) [Compound 136, 1-(2,4-dimethoxybenzoyl)-4-[3-(4-fluorobenzyl)-1,2,4-thiadiazol-5-yl]-2-methylpiperazine] was tested, and the EC50 was 0.34 µg/mL (≈ 0.745 µM) and the “%I” value was 83%.
For `O=C(c1cc(Cl)cc(Cl)c1)N1CCN(c2nc(Cc3ccc(F)cc3)ns2)CC1` [Compound 137, 1-(3,5-dichlorobenzoyl)-4-[3-(4-fluorobenzyl)-1,2,4-thiadiazol-5-yl]piperazine], the EC50 was 0.35 µg/mL (≈ 0.775 µM) and the “%I” value was 68%.
`O=C(c1cccc(Cl)c1)N1CCN(c2nc(Cc3ccc(F)cc3)ns2)CC1` [Compound 138, 1-(3-chlorobenzoyl)-4-[3-(4-fluorobenzyl)-1,2,4-thiadiazol-5-yl]piperazine] was tested, and the EC50 was 0.36 µg/mL (≈ 0.863 µM) and the “%I” value was 81%.
For `Cc1ccc(C(=O)N2CCN(c3nc(Cc4ccc(F)cc4)ns3)CC2C)cc1` (centres unmarked) [Compound 139, 1-(4-methylbenzoyl)-4-[3-(4-fluorobenzyl)-1,2,4-thiadiazol-5-yl]-2-methylpiperazine], the EC50 was 0.4 µg/mL (≈ 0.974 µM) and the “%I” value was 87%.
With `Cc1ccccc1C(=O)N1CCN(c2nc(Cc3ccc(F)cc3)ns2)CC1C` (centres unmarked) [Compound 140, 1-(2-methylbenzoyl)-4-[3-(4-fluorobenzyl)-1,2,4-thiadiazol-5-yl]-2-methylpiperazine] the EC50 was 0.45 µg/mL (≈ 1.1 µM) and the “%I” value was 56%.
With `Cc1ccc(C(=O)N2CCN(c3nc(Cc4ccc(F)cc4)ns3)CC2)cc1` [Compound 141, 1-(4-methylbenzoyl)-4-[3-(4-fluorobenzyl)-1,2,4-thiadiazol-5-yl]piperazine] the EC50 was 0.49 µg/mL (≈ 1.24 µM) and the “%I” value was 75%.
`CC1CN(c2nc(Cc3ccc(F)cc3)ns2)CCN1C(=O)c1cccc(Br)c1` (centres unmarked) [Compound 142, 1-(3-bromobenzoyl)-4-[3-(4-fluorobenzyl)-1,2,4-thiadiazol-5-yl]-2-methylpiperazine] was tested, and the EC50 was 0.5 µg/mL (≈ 1.05 µM) and the “%I” value was 72%.
`CCc1ccc(C(=O)N2CCN(c3nc(Cc4cccc(OC)c4)ns3)CC2C)cc1` (centres unmarked) [Compound 143, 1-(4-ethylbenzoyl)-4-[3-(3-methoxybenzyl)-1,2,4-thiadiazol-5-yl]-2-methylpiperazine] was tested, and the EC50 was 0.56 µg/mL (≈ 1.28 µM) and the “%I” value was 89%.
